Source: patent US20250101062A1, “ANTIMICROBIAL PEPTIDES” (Board of Regents of the University of Nebraska, priority 2023, published 2025)
Like-named read-outs stand apart in the source and are kept apart here. Where no end group is shown, it is not given here.

Experiments:
P. aeruginosa E411-17 = experiment: microbe, parasite or virus in culture; format: cell-based, Pseudomonas aeruginosa; details: for MIC: read-out: Antimicrobial activity (MIC)
In short: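 Broth microdilution with twofold peptide dilutions, using exponential-phase bacteria at about 10^5 CFU/mL in MHB, incubated overnight at 37 °C and read at OD600. MIC, reported as a range, is the peptide concentration with no growth. Some tests used diluted MHB/TSB/LB, adjusted pH, or added NaCl or human serum.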

E. coli E423-17 biofilms = experiment: Disruption of preformed biofilms in vitro (XTT); format: cell-based, Escherichia coli; details: for effect on biofilms: 24 h preformed biofilm
Protocol: Effects of Peptides on Established Biofilms in Vitro. Bacteria (S. aureus USA300 LAC and E. coli E423-17) were grown in rich TSB media overnight. A second inoculation was made the next day to reach an exponential phase (OD600˜0.4). Microtiter plates (96 wells, Corning Costar Cat no. 3595), after aliquoting with 180 μL of the culture to each well, were incubated at 37° C. for 24 hours to form biofilms in rich TSB. Media were aspirated post incubation, and the attached biofilms were washed with 1×PBS to remove the planktonic bacteria. […] Biofilms treated with water served as the positive control, while media without bacterial inoculation served as the negative control. Live cells in the biofilms were quantitated using XTT as described above. Absorbance was read at 450 nm (only media with XTT containing wells served as the blank) using a ChroMate™ microtiter plate reader. Percentage biofilm growth for the peptide was plotted by assuming 100% biofilm growth in bacterial control alone. The data were represented as mean±SD; plots were generated using GraphPad prism 7, where * indicates p<0.05, **p<0.01, and ***P<0.001, and ****p<0.0001 (one-way analyses of variance).

MRSA USA300 = experiment: Membrane depolarization (DiBAC4(3)); format: cell-based, Staphylococcus aureus
Protocol: An overnight culture of MRSA USA300 was inoculated into TSB and grown to an exponential phase. Bacteria were washed with 1×PBS, resuspended in twice the volume of 1×PBS containing 25 mM glucose, and incubated at 37° C. for 15 minutes. Then, 500 nM (final concentration) of DiBAC4 (3) bis(1, 3-dibutylbarbituric acid) trimethine oxonol (ANASPEC, CA) was added, and the mixture was vortexed gently. Aliquots of 90 μL of the energized bacteria solution were loaded into the 96-well plates (Corning COSTAR, AZ) and placed in a FLUOstar® Omega microplate reader (BMG LABTECH, NC). Fluorescence was read for 20 minutes at excitation and emission wavelengths of 485 and 520 nm, respectively. Then, 10 μL of peptide solutions was added, and fluorescence readings were recorded for 40 minutes. Triton® X-100 (0.1%) was used as the positive control.
Bacterial membrane depolarization was conducted (Marks, et al. (2013) PLoS One 8(5):e63158). […] Aliquots of 90 μL of the energized bacteria solution were loaded to the 96 well plates (Corning COSTAR, AZ) and placed in a FLUOstar® Omega microplate reader (BMG LABTECH, NC). Fluorescence was read for 20 minutes at excitation and emission wavelengths of 485 nm and 520 nm, respectively. Then, 10 μL of peptide solutions was added and fluorescence readings were recorded for 40 minutes. […]

Question: For `CCCCCCCCCC(=O)N[C@@H](Cc1c[nH]c2ccccc12)C(=O)N[C@H](CC(N)=O)C(=O)N[C@@H](CC(=O)O)C(=O)N[C@@H]1C(=O)NCC(=O)N[C@@H](CCCN)C(=O)N[C@@H](CC(=O)O)C(=O)N[C@H](C)C(=O)N[C@@H](CC(=O)O)C(=O)NCC(=O)N[C@H](CO)C(=O)N[C@@H]([C@H](C)CC(=O)O)C(=O)N[C@@H](CC(=O)c2ccccc2N)C(=O)O[C@@H]1C` [Daptomycin], which MIC (P. aeruginosa E411-17; Human serum 5%) is on record?
Answer: >8 µM

Question: What about the MIC (P. aeruginosa E411-17; Human serum 10%) of the same compound?
Answer: >8 µM

Question: What about the MIC (P. aeruginosa E411-17; Pseudomonas aeruginosa, E41117, pH 6.21) of the same compound?
Answer: > 8 µM

Question: What about the MIC (P. aeruginosa E411-17; Pseudomonas aeruginosa, E41117, pH 7.22) of the same compound?
Answer: > 8 µM

Question: What about the MIC (P. aeruginosa E411-17; Pseudomonas aeruginosa, E41117, pH 8.13) of the same compound?
Answer: > 8 µM

Question: And the MIC (P. aeruginosa E411-17; Pseudomonas aeruginosa, E41117, NaCl (150 mM))?
Answer: > 8 µM

Question: Which results are given for `CC[C@H](C)[C@H](NC(=O)[C@H](CCCCN)NC(=O)[C@H](CCC(=O)O)NC(=O)[C@H](CCCCN)NC(=O)[C@H](CO)NC(=O)[C@H](CCCCN)NC(=O)[C@H](CCCNC(=N)N)NC(=O)[C@H](Cc1ccccc1)NC(=O)[C@H](Cc1ccccc1)NC(=O)[C@H](CC(=O)O)NC(=O)CNC(=O)[C@H](CC(C)C)NC(=O)[C@@H](N)CC(C)C)C(=O)NCC(=O)N[C@@H](CCCCN)C(=O)N[C@@H](CCC(=O)O)C(=O)N[C@@H](Cc1ccccc1)C(=O)N[C@@H](CCCCN)C(=O)N[C@@H](CCCNC(=N)N)C(=O)N[C@H](C(=O)N[C@H](C(=O)N[C@@H](CCC(N)=O)C(=O)N[C@@H](CCCNC(=N)N)C(=O)N[C@H](C(=O)N[C@@H](CCCCN)C(=O)N[C@@H](CC(=O)O)C(=O)N[C@@H](Cc1ccccc1)C(=O)N[C@@H](CC(C)C)C(=O)N[C@@H](CCCNC(=N)N)C(=O)N[C@@H](CC(N)=O)C(=O)N[C@@H](CC(C)C)C(=O)N[C@H](C(=O)N1CCC[C@H]1C(=O)N[C@@H](CCCNC(=N)N)C(=O)N[C@H](C(=O)N[C@@H](CCC(=O)O)C(=O)N[C@@H](CO)C(=O)O)[C@@H](C)O)C(C)C)[C@@H](C)CC)C(C)C)[C@@H](C)CC` [LL-37]?
Answer: effect on biofilms (E. coli E423-17 biofilms; 12.5% MHB): dose-dependent antibiofilm effect; effect on biofilms (E. coli E423-17 biofilms; 100% MHB): subtle effect; membrane depolarization (MRSA USA300; Example 2, PBS with glucose): most powerful in membrane depolarization

Question: What does the source list for RRWWRWWR-NH2 [W543]?
Answer: Activity (MIC) P. aeruginosa (P. aeruginosa E411-17; E411-17): 8 µM; effect on live cells in biofilms (E. coli E423-17 biofilms; 24 hour preformed biofilms, 16 μM): almost eliminated; reduction of live bacteria (E. coli E423-17 biofilms; 24 hour preformed biofilms, treated at 8 μM): ~40%; membrane depolarization (MRSA USA300; Example 1, highest concentration tested): did not show a clear effect
